Assay results taken from publication PMC11040670, “Mechanistic and Kinetic Insights into Cellular Uptake of Biomimetic Dinitrosyl Iron Complexes and Intracellular Delivery of NO for Activation of Cytoprotective HO-1” (JACS Au, 2024).

Columns and labels:
Format in all cases: cell-based, human
MSC [1] = assay: Whole-cell EPR: cellular uptake and intracellular formation/decomposition of mononuclear DNIC in MSC; conditions: for tmax for cellular uptake and intracellular transformation (whole-cell EPR): normoxia, 100 μM DNIC–COOH or 2.5 μM DNIC–COOMe
Experimental: Cellular uptake of DNIC–COOH and intracellular formation/decomposition of mononuclear DNICs in MSC/N2a/HCEC cells were investigated using EPR spectroscopy. Briefly, cells were seeded into two (or one) 100 mm dish(es) at a density of 2 × 10^6 cells/dish and incubated at 37 °C overnight. On the next day, cells were treated with 100 μM of DNIC–COOH (or 100 μM of DNIC–COOH to N2a and 75 μM of DNIC–COOH to HCEC) and incubated for 0, 0.5, 1, 2, 3, 4, 8, and 24 h, respectively. After removal of the supernatant solution, cells were washed with DPBS before addition of 1 mL of trypsin (0.05%)/EDTA (0.53 mM) and incubation for 5 min at 37 °C. After the obtained cell suspension solutions from two 100 mm dishes were combined and centrifuged at 100g for 5 min, the supernatant was removed before addition of 100 μL of αMEM to DNIC-treated MSC (or MEM to DNIC-treated N2a and HSFM to DNIC-treated HCEC). This solution was then transferred into EPR quartz tube and frozen in N2(l) before the EPR measurements. For each measured EPR spectrum, double integration was executed to obtain the integrated EPR intensity under each condition. Moreover, time-dependent decay of integrated EPR signal intensity after treatment of DNIC–COOH was fit to pseudo-first-order kinetics in order to determine the intracellular half-life for EPR-active mononuclear DNIC. Three independent experiments were executed to measure the average half-life for intracellular decomposition of EPR-active mononuclear DNIC after treatment with DNIC–COOH at 37 °C. On the other hand, at the time point with maximum integrated EPR signal intensity, spin quantitation of intracellular EPR-active DNICs was performed using mononuclear DNIC [PPN][(NO)2Fe(S5)] as a standard according to the methodology used in the previous work.[50] Cellular uptake of DNIC–COOMe (2.5 μM to MSC, 10 μM to N2a, or 1 μM to HCEC) and intracellular formation/decomposition of EPR-active mononuclear DNICs were investigated using EPR spectroscopy in a similar manner.
Studies of cellular uptake mechanisms were investigated using EPR spectroscopy in combination with pretreatments of alternative inhibitors. After the MSC cells were seeded into two (or one) 100 mm dish(es) at a density of 2 × 10^6 cells/dish and incubated at 37 °C overnight, sequential treatments of 50 μM of NEM for 0.5 h and 100 μM of DNIC–COOH for 2 h were performed before the treated MSC cells were collected for EPR measurement following the procedure described above. […]

HMOX1 gene = assay: Real-time PCR of HMOX1 gene in MSC; conditions: at 3 h, 100 μM DNIC–COOH or 2.5 μM DNIC–COOMe
Experimental: After treatment of (1) 100 μM of DNIC–COOH to MSC, (2) 100 μM of DNIC–COOH to N2a, (3) 75 μM of DNIC–COOH to HCEC, (4) 2.5 μM of DNIC–COOMe to MSC, (5) 10 μM of DNIC–COOMe to N2a, and (6) 1 μM of DNIC–COOMe to HCEC, respectively, the total RNA of the treated cells was extracted using TRIzol Reagent (Thermo Fisher Scientific) in order to assess the time-dependent change in the mRNA level of HO-1. After the synthesis of complementary DNA with the High-Capacity Reverse Transcription Kit, qPCR was conducted using Power SYBR Green PCR Master Mix with the StepOnePlus Real-Time PCR System (Thermo Fisher Scientific). […] The relative mRNA levels of target genes were determined by a comparative threshold cycle method and normalized to that of RPL13A (or GAPDH). The mRNA level of HO-1 in the MSC, N2a, and HCEC cells, respectively, that received the (1) sequential treatments of 1H-[1,2,4]oxadiazolo-[4,3-a]quinoxalin-1-one (ODQ, 10 μM for 1 h) and DNIC–COOH (100 μM in MSC for 3 h, 100 μM in N2a for 10 h, and 75 μM in HCEC for 6 h) or (2) cotreatment of 2-phenyl-4,4,5,5-tetramethylimidazoline-1-oxyl-3-oxide (PTIO, 100 μM in MSC, 200 μM in N2a, and 100 μM in HCEC) and DNIC–COOH (100 μM in MSC for 3 h, 100 μM in N2a for 10 h, and 75 μM in HCEC for 6 h) was also evaluated under a similar procedure.

MSC [2] = assay: Survival of MSC under oxygen–glucose-deprived (OGD) condition; conditions: MSC pretreated with DNIC, glucose-free DMEM, 1% oxygen, 48 h
Experimental: Cell viability study of MSC, N2a, and HCEC cells with or without the treatment of DNIC–COOH was performed using a Cell Counting Kit-8 (IMT Formosa New Materials Co., Ltd., Taiwan) according to the manufacturer’s protocol. Briefly, cells were seeded into a 96-well plate at a density of 4 × 10^3 cells/well for MSC, 1 × 10^4 cells/well for N2a, and 8 × 10^3 cells/well for HCEC, respectively, and incubated overnight. On the next day, cells were treated with DNIC–COOH at different concentrations and incubated for 24 h. The culture medium was then removed before the cells were washed with DPBS. After addition of fresh medium containing CCK-8 solution to the cells and incubation for 1–3 h, the absorbance at 450 nm was then measured on a microplate reader (SpectraMax iD3, Molecular Devices, San Jose, CA) with a reference wavelength of 650 nm. Three independent experiments were executed, and the results were represented as mean ± SEM% (n = 3) with the untreated cells (control) as 100% viability. […]
To simulate the microenvironment of ischemic tissues, the MSC cells with or without DNIC priming were cultured using glucose-free DMEM in a humidified hypoxia incubator (1% oxygen; Heracell VIOS 160i, Thermo Fisher Scientific) for 48 h. Cell viability was assessed by live/dead staining or CCK-8 assay.

SMILES	relative whole-cell EPR signal intensity at gav = 2.03 (control = 100%) (MSC [1]; CPZ-treated MSC) [%]	tmax for cellular uptake and intracellular transformation (whole-cell EPR) (MSC [1]; MSC) [h]	activation of HMOX1 gene (HMOX1 gene) [fold]	cell viability under OGD condition (MSC [2])	relative whole-cell EPR signal intensity at gav = 2.03 (control = 100%) (MSC [1]; MSC, native FBS replaced with 20% NEM-treated FBS) [%]	relative whole-cell EPR signal intensity at gav = 2.03 (control = 100%) (MSC [1]; MSC, pretreatment of NEM 0.5 h, then DNIC–COOMe 0.5 h, reduction) [%]
O=[N][Fe]1([N]=O)[SH](CCC(=O)O)[Fe]([N]=O)([N]=O)[SH]1CCC(=O)O (stereo not drawn) [DNIC–COOH, [(NO)2Fe(μ-SCH2CH2COOH)2Fe(NO)2]]	84.2 ± 11.0	2	49.5 ± 2.9	increase in the number of viable cells		
COC(=O)CC[SH]1[Fe]([N]=O)([N]=O)[SH](CCC(=O)OC)[Fe]1([N]=O)[N]=O (stereo not drawn) [DNIC–COOMe, [(NO)2Fe(μ-SCH2CH2COOCH3)2Fe(NO)2]]		0.5	18.8 ± 2.3	comparable to that of OGD group	172.4 ± 24.1	29.7 ± 16.3
